Data as given in article PMC9301601 (Frontiers in Pharmacology, 2022).

System: hiPSC-CMs
Assay: Action potential recording in hiPSC-CMs, whole-cell patch-clamp (current-clamp)
Assay type: cell-based, human
Conditions: LPV-treated hiPSC-CMs, Figure 6H

## Cc1cccc(C)c1OCC(=O)N[C@@H](Cc1ccccc1)[C@@H](O)C[C@H](Cc1ccccc1)NC(=O)[C@H](C(C)C)N1CCCNC1=O [LPV, lopinavir]
  Interval (spontaneous rate interval): 1.4 ± 0.3 s
